Assay results from ChEMBL document CHEMBL1201862, “PubChem BioAssay data set” (2004).
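Five compound concentrations were applied to cells in 96-well plates for 48 hours; endpoints were derived by simple linear interpolation of the resulting dose-response curve. GI50 marks 50% less growth.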 Calls of active or inactive are those of the source. No stated cut-off is given here; in the data, active = GI50 up to about 1.1 µM and inactive = higher.

Key:
Experiment in all cases: DTP human tumour cell line panel, 48 h
786-0 = test system: 786-0
HCC 2998 = test system: HCC 2998
SNB-19 = test system: SNB-19
LOX IMVI = test system: LOX IMVI
RPMI-8226 = test system: RPMI-8226
TK-10 = test system: TK-10
A549 = test system: A549
UO-31 = test system: UO-31
OVCAR-3 = test system: OVCAR-3
Malme-3M = test system: Malme-3M
HT-29 = test system: HT-29
CAKI-1 = test system: CAKI-1
SK-MEL-2 = test system: SK-MEL-2
HOP-62 = test system: HOP-62
UACC-62 = test system: UACC-62
SW-620 = test system: SW-620
NCI-H522 = test system: NCI-H522

Measured: GI50

Cc1cccc(C2=C/C(=C(\SS/C(C(=O)c3ccc(OCC(=O)O)c(Cl)c3Cl)=C3\C=C(c4cccc(C)c4)SS3)C(=O)c3ccc(OCC(=O)O)c(Cl)c3Cl)SS2)c1
inactive: 786-0 20 µM | HCC 2998 31 µM | SNB-19 10.9 µM | LOX IMVI 4.69 µM | RPMI-8226 16.9 µM | TK-10 27.9 µM | A549 28.8 µM | UO-31 13 µM | OVCAR-3 14.2 µM | Malme-3M 25.5 µM | HT-29 27.7 µM | CAKI-1 23.1 µM | SK-MEL-2 19.1 µM | HOP-62 47.1 µM | UACC-62 13.8 µM | SW-620 18.1 µM | NCI-H522 2.12 µM

Cc1ccc(NC(=O)C2C3CCC(O3)C2C(=O)O)cc1 (stereo not given)
inactive: 786-0 > 40.6 µM | HCC 2998 99.1 µM | SNB-19 > 100 µM | LOX IMVI > 38.7 µM | RPMI-8226 39.6 µM | TK-10 > 100 µM | A549 > 76.2 µM | UO-31 > 100 µM | OVCAR-3 > 52.2 µM | Malme-3M > 100 µM | HT-29 > 45 µM | CAKI-1 > 100 µM | SK-MEL-2 64.9 µM | HOP-62 > 100 µM | UACC-62 > 46.6 µM | SW-620 > 22.3 µM | NCI-H522 43.6 µM

Cn1c(=O)c2c3ccccc3c(C(=O)c3ccccc3)n2c2ccccc21
inactive: 786-0 10.3 µM | SNB-19 > 43.3 µM | LOX IMVI 9.64 µM | RPMI-8226 3.55 µM | TK-10 > 43.7 µM | A549 56.8 µM | UO-31 > 52.7 µM | OVCAR-3 2.94 µM | Malme-3M 5.62 µM | HT-29 3.63 µM | CAKI-1 > 26.8 µM | SK-MEL-2 15.5 µM | HOP-62 > 42.8 µM | UACC-62 4.02 µM | SW-620 5.78 µM | NCI-H522 3.33 µM

Cc1cc2c(=O)cc(-c3ccncc3)oc2c(C(=O)O)c1C
inactive: 786-0 > 100 µM | HCC 2998 > 100 µM | SNB-19 > 100 µM | LOX IMVI > 100 µM | RPMI-8226 > 100 µM | TK-10 > 100 µM | A549 > 100 µM | UO-31 > 100 µM | OVCAR-3 > 100 µM | Malme-3M > 100 µM | HT-29 > 100 µM | SK-MEL-2 > 100 µM | HOP-62 > 100 µM | UACC-62 > 100 µM | SW-620 > 100 µM

O=C(Nc1cccc(Cl)c1)c1cc2cc(/N=N/c3ccc(Br)cc3)ccc2oc1=O
inactive: 786-0 25.5 µM | HCC 2998 25.8 µM | SNB-19 25.1 µM | LOX IMVI 14.4 µM | RPMI-8226 33.2 µM | TK-10 51.1 µM | A549 90.6 µM | UO-31 14 µM | OVCAR-3 22.8 µM | Malme-3M > 100 µM | HT-29 66.7 µM | CAKI-1 23.2 µM | SK-MEL-2 12.9 µM | HOP-62 > 100 µM | UACC-62 14.1 µM | SW-620 29.3 µM | NCI-H522 49.4 µM

C[Si]12OCCCN(CCO1)CCO2
inactive: 786-0 > 100 µM | HCC 2998 > 100 µM | SNB-19 > 100 µM | RPMI-8226 > 100 µM | TK-10 > 100 µM | A549 > 100 µM | UO-31 > 100 µM | OVCAR-3 > 100 µM | Malme-3M > 100 µM | HT-29 > 100 µM | CAKI-1 > 100 µM | SK-MEL-2 > 100 µM | UACC-62 > 100 µM | SW-620 > 100 µM | NCI-H522 > 100 µM

CSC(=N)N1N=C2c3ccccc3CC[C@@H]2[C@@H]1c1ccccc1
inactive: 786-0 12.9 µM | HCC 2998 15 µM | SNB-19 16.4 µM | LOX IMVI 14.5 µM | RPMI-8226 12.1 µM | TK-10 17 µM | A549 17.6 µM | UO-31 9.64 µM | OVCAR-3 15.8 µM | Malme-3M 12.8 µM | HT-29 10.3 µM | SK-MEL-2 14.6 µM | HOP-62 15.7 µM | UACC-62 17 µM | SW-620 15.5 µM | NCI-H522 14.2 µM

Cc1cccc(C(C)C)c1NC(=O)CCl
inactive: 786-0 53.8 µM | HCC 2998 29.6 µM | SNB-19 36.5 µM | LOX IMVI 37.1 µM | RPMI-8226 86.7 µM | TK-10 > 10 µM | A549 > 100 µM | UO-31 > 100 µM | OVCAR-3 19.1 µM | Malme-3M 81.7 µM | HT-29 49.1 µM | CAKI-1 27.9 µM | SK-MEL-2 75.5 µM | HOP-62 41.9 µM | UACC-62 24.4 µM | SW-620 39.6 µM | NCI-H522 15.3 µM

Cc1ccc(NC(=O)CC(=O)n2nc(-c3ccccc3)c(/N=N/c3ccc(Cl)cc3)c2-c2ccccc2)cc1
inactive: 786-0 21.1 µM | HCC 2998 84.5 µM | SNB-19 42.6 µM | LOX IMVI 15.6 µM | RPMI-8226 23.3 µM | TK-10 22.3 µM | A549 28.2 µM | UO-31 > 100 µM | OVCAR-3 42.6 µM | Malme-3M > 100 µM | HT-29 17.9 µM | CAKI-1 > 100 µM | SK-MEL-2 > 100 µM | HOP-62 50.6 µM | UACC-62 > 100 µM | SW-620 15.2 µM

CC(=O)N1C(=O)C(=O)c2cc(Cl)ccc21
inactive: 786-0 > 100 µM | HCC 2998 > 100 µM | SNB-19 > 100 µM | LOX IMVI > 100 µM | RPMI-8226 > 100 µM | TK-10 > 100 µM | A549 > 100 µM | UO-31 > 100 µM | OVCAR-3 > 100 µM | Malme-3M > 100 µM | HT-29 > 100 µM | UACC-62 > 100 µM | SW-620 > 100 µM

N#CC(C#N)=C1NC(=O)CC(=O)N1
inactive: 786-0 > 100 µM | HCC 2998 > 100 µM | SNB-19 > 100 µM | LOX IMVI > 100 µM | RPMI-8226 > 100 µM | TK-10 > 100 µM | A549 > 100 µM | UO-31 > 100 µM | OVCAR-3 > 100 µM | Malme-3M > 100 µM | HT-29 > 100 µM | CAKI-1 > 100 µM | HOP-62 > 100 µM | UACC-62 > 100 µM | SW-620 > 100 µM | NCI-H522 > 100 µM

C#C[C@]1(O)CCCC2=CC(=O)CC[C@@]21C
inactive: 786-0 > 100 µM | HCC 2998 > 100 µM | SNB-19 > 100 µM | RPMI-8226 > 100 µM | TK-10 > 100 µM | A549 > 100 µM | UO-31 > 100 µM | OVCAR-3 > 100 µM | Malme-3M > 100 µM | HT-29 > 100 µM | SK-MEL-2 > 100 µM | SW-620 > 100 µM | NCI-H522 > 100 µM

C=C1CC(CCCl)(c2ccccc2)OC1=O (stereo not given)
inactive: 786-0 17.4 µM | HCC 2998 35.7 µM | SNB-19 > 78.7 µM | LOX IMVI 30.5 µM | RPMI-8226 15.8 µM | TK-10 > 47.5 µM | A549 > 71.9 µM | UO-31 58.3 µM | OVCAR-3 26.1 µM | Malme-3M 23.6 µM | HT-29 33 µM | SK-MEL-2 > 57.5 µM | HOP-62 > 100 µM | UACC-62 48.4 µM | SW-620 20.2 µM | NCI-H522 18.5 µM

C[C@@H](CO)OCOCc1ccccc1
inactive: 786-0 > 100 µM | HCC 2998 > 100 µM | SNB-19 > 100 µM | LOX IMVI > 100 µM | RPMI-8226 > 100 µM | A549 > 100 µM | UO-31 > 100 µM | OVCAR-3 > 100 µM | Malme-3M > 100 µM | HT-29 > 100 µM | CAKI-1 > 100 µM | SK-MEL-2 > 100 µM | HOP-62 > 100 µM | UACC-62 > 100 µM | SW-620 > 100 µM | NCI-H522 > 100 µM

O=C(Nc1cccc(O)c1)C(=O)C(C(=O)c1ccc(Cl)c(Cl)c1)C1OC(=O)c2ccccc21 (stereo not given)
inactive: 786-0 13.6 µM | HCC 2998 15.5 µM | SNB-19 13.3 µM | LOX IMVI 17.3 µM | RPMI-8226 16 µM | TK-10 23.8 µM | A549 37 µM | UO-31 13.7 µM | Malme-3M 14.4 µM | HT-29 27.4 µM | CAKI-1 27.2 µM | SK-MEL-2 17.5 µM | UACC-62 17.5 µM | SW-620 14.4 µM | NCI-H522 9.82 µM

COC(=O)C(=O)C(C(=O)C(=O)Nc1ccc([N+](=O)[O-])cc1)c1nc2ccccc2nc1O (stereo not given)
inactive: 786-0 > 100 µM | SNB-19 > 100 µM | LOX IMVI > 100 µM | RPMI-8226 > 100 µM | TK-10 > 100 µM | A549 > 100 µM | UO-31 > 100 µM | OVCAR-3 > 100 µM | Malme-3M > 100 µM | HT-29 81.5 µM | CAKI-1 53.2 µM | SK-MEL-2 > 100 µM | HOP-62 39.6 µM | UACC-62 19.6 µM | SW-620 > 100 µM | NCI-H522 > 100 µM

Oc1cccc2c1NC1=C(CCC/C1=C\c1ccccc1)C2
inactive: 786-0 > 100 µM | HCC 2998 49.3 µM | SNB-19 > 100 µM | LOX IMVI 73.3 µM | RPMI-8226 52 µM | TK-10 > 100 µM | A549 > 100 µM | UO-31 51.2 µM | OVCAR-3 > 100 µM | Malme-3M > 100 µM | HT-29 49.8 µM | HOP-62 > 100 µM | SW-620 > 100 µM | NCI-H522 11 µM
